Measurements from PMC3585395, “Material Basis of Chinese Herbal Formulas Explored by Combining Pharmacokinetics with Network Pharmacology” (PLoS ONE, 2013).
Where two headings read alike, the source gives them in different places.

Test: in vivo
Type: in vivo, Sprague–Dawley rats
Conditions: for Detection in rat plasma after D7 administration: LC-MS/MS, sampling up to 24 h; for AUC / Cmax / MRT / Tmax / half-life / AUC(0-t) / CL/F / Vd/F: male, Sprague-Dawley, rat, in vivo; for Vd/F: read-out: Vz/F
Method: Male Sprague–Dawley rats (∼250 g) purchased from Sino-British Sippr/BK Lab Animal, Ltd. (Shanghai, China) were housed in air-conditioned animal quarters with alternating 12 h light/dark cycles at a room temperature of 22°C±2°C and a relative humidity of 50%±10%. Commercial rat chow and water were given ad libitum. The animal studies were approved by the Review Committee of Animal Care and Use at Longhua Hospital. The rats were fasted overnight (∼12 h) and had free access to water throughout the experimental period. Five rats were given a single oral dose of D7 at 4 mL/kg, which was designed based on the clinical dosage for human. Blood samples (∼150 µL) were collected via a jugular vein catheter from non-restrained, non-sedated animals into heparinized tubes before and at 0.083, 0.25, 0.5, 1, 2, 3, 4, 6, 8, 10, and 24 h after administration. After centrifugation at 4000×g for 10 min at 4°C, duplicates of 25 µL of the plasma samples were obtained and were immediately stored at −80°C until analysis. After the experiments, the rats were sacrificed with ether anesthesia.
For protein precipitation, 75 µL of MeOH were added to 25 µL of plasma samples. After vortexing for 2 min and centrifugation for 5 min at 13000×g at 4°C, 80 µL aliquots of the supernatant liquid were transferred into autosampler vials for LC-MS/MS analysis.
The LC-MS/MS system consisted of an Agilent HPLC 1200 series system and a CTC autosampler coupled with an API 4000 triple-quadrupole mass spectrometer equipped with a TurboIonSpray ion source. The LC-MS/MS system was controlled using the Analyst 1.4.2 software, which also acquired and processed the data.
LC separation was performed on a 5 µm Agel Luna C18 (50 mm×2.1 mm, i.d.) at room temperature with a 2 µm filter used before the analytical column. The LC mobile phase was H2O containing 0.1% formic acid (A) and MeOH (B) at a flow rate of 0.30 mL/min. A gradient elution program was used as following: 0→2.5 min, B% 60→90; 2.5→2.6 min, B% 90→60; and 2.6→4 min, B% 60→60. The injection volume was 10 µL and the temperature of the autosampler was set at 4°C to keep the samples stable during the analysis.
The tuning solutions (10 µg/mL) of the individual analytes were prepared by diluting the corresponding primary stock solutions with 50% MeOH. The tuning solutions were delivered at 5.0 µL/min using a syringe pump and combined through a PEEK tee-connector with the mobile phase delivered at 0.3 mL/min with the LC pump. The instrumental parameters of the MS spectrometers in positive ion ESI mode were optimized to achieve maximum ionization of the analyte molecules and the generation of characteristic fragment ions. […] The scan time for each pair was set to 50 ms. The operating parameters of the mass spectrometer included compound-dependent and source-dependent considerations. The optimized source-dependent parameters consisted of the flow rates of curtain gas, gas 1, gas 2, collision gas (CAD), capillary temperature (TEM), and ion spray voltage. The compound-dependent parameters for the test compounds included the declustering potential (DP), entrance potential (EP), collision energy (CE), and collision cell exit potential (CXP).
Standard curves, intra-batch accuracy, and precision for the quantification of the 15 compounds in the rat plasma samples were constructed similarly. The accuracy was measured as the difference between the nominal value and the measured value, expressed as a percentage of the nominal value. Precision was expressed as the coefficient of variation (CV), i.e., the standard deviation divided by the mean multiplied by 100.
The plasma concentration–time data for D7 were analyzed with the WinNonlin 5.2.1 software (Pharsight, Mountain View, CA, USA) using a non-compartmental model. The peak plasma concentration (C max) and the corresponding time (T max) were directly obtained from the concentration data.

[1] = SD rats, single oral D7 4 mL/kg
[2] = SD rats, single oral D7 4 mL/kg, plasma
[3] = SD rats, single oral D7 4 mL/kg, plasma, non-compartmental, read-out: T1/2 (converted)
[4] = SD rats, single oral D7 4 mL/kg, plasma, read-out: AUC0–24 h
[5] = SD rats, single oral D7 4 mL/kg, read-out: CL/F (converted)

SMILES | Detection in rat plasma after D7 administration [1] | AUMCall [2] | AUMClast [2] | AUC [2] | Cmax [2] | MRT [2] | Tmax [2] | half-life [3] | AUC(0-t) [4] | CL/F [5] | Vd/F [1] | CL/F (po) | half-life (po, T1/2) | T1/2 (SD rats, single oral D7 4 mL/kg, plasma, non-compartmental) | half-life (po, SD rats, single oral D7 4 mL/kg, plasma, non-compartmental, read-out: T1/2 (converted)) | AUC(0-t) (SD rats, single oral D7 4 mL/kg, plasma, read-out: AUClast)
COCC12CN(C)C3C4C(OC)C1C3(C(OC)CC2O)C1CC2(O)C(OC)C(O)C4(OC(C)=O)C1C2OC(=O)c1ccccc1 (stereo not shown) [mesaconitine] | not detected |  |  |  |  |  |  |  |  |  |  |  |  |  |  | 
O=c1ccc2ccc3occc3c2o1 [Isopsoralen, isopsoralen] | measureable | 168803±119110 h·h·ng/mL | 150025±99963 h·h·ng/mL | 21000 ± 12100 ng·h/mL | 2240 ± 824 ng/mL | 7.13 ± 0.66 h | 6 h | 3.53 ± 1.03 h | 20400 ± 11500 ng·h/mL | 1.1 mL/min/kg | 0.308 ± 0.181 L/kg |  |  |  |  | 
COc1c2occc2cc2ccc(=O)oc12 [Xanthotoxin, xanthotoxin] |  | 1445±719 h·h·ng/mL | 667±270 h·h·ng/mL | 209 ± 89.5 ng·h/mL | 31.7 ± 9.55 ng/mL | 4.06 ± 0.41 h | 1 h |  | 162 ± 64.7 ng·h/mL |  | 3.69 ± 1.52 L/kg | 9.6 mL/min/kg | 4.56 ± 0.71 h |  |  | 
O=c1ccc2cc3ccoc3cc2o1 [Psoralen, psoralen] |  | 74305±51503 h·h·ng/mL | 69918±49475 h·h·ng/mL | 10200 ± 6000 ng·h/mL | 929 ± 431 ng/mL | 6.71 ± 0.79 h | 6 h | 3.18 ± 0.24 h | 9980 ± 5960 ng·h/mL | 1.39 mL/min/kg | 0.384 ± 0.227 L/kg |  |  |  |  | 
COc1c2ccoc2cc2oc(=O)ccc12 [Bergapten, bergapten] | measureable | 1270±958 h·h·ng/mL | 924±716 h·h·ng/mL | 158 ± 77.9 ng·h/mL | 20.5 ± 7.22 ng/mL | 5.65 ± 2.16 h | 1 h | 4.14 ± 0.7 h | 143 ± 73.2 ng·h/mL | 8.07 mL/min/kg | 2.93 ± 1.57 L/kg |  |  |  |  | 
CCN1CC2(COC)C(O)CC(OC)C34C5CC6(O)C(OC)C(O)C(O)(C5C6OC(=O)c5ccccc5)C(C(OC)C23)C14 (stereo not shown) [Benzoylaconitine, benzoylaconine] | not detected |  |  |  |  |  |  |  |  |  |  |  |  |  |  | 
CC(C)=CCc1cc2c(cc1O)oc(=O)c1c3ccc(O)cc3oc21 [Psoralidin, psoralidin] | measureable | 2240±462 h·h·ng/mL | 329±44 h·h·ng/mL | 64.5 ± 8.46 ng·h/mL | 2.57 ± 0.53 ng/mL | 10.3 ± 0.39 h | 0.5 h |  |  | 2.88 mL/min/kg | 5.87 ± 0.395 L/kg |  |  | 23.7 ± 1.7 h | ~24 h | 31.9 ± 3.32 ng·h/mL
COC[C@@]12CC[C@H](OC)[C@]34C(C([C@H](OC)[C@H]13)[C@]1(OC(C)=O)[C@H]3[C@@H](OC(=O)c5ccccc5)[C@](O)(C[C@H]34)[C@@H](OC)[C@@H]1O)N(C)C2 [hypaconitine] | not detected |  |  |  |  |  |  |  |  |  |  |  |  |  |  | 
CCN1C[C@]2(COC)[C@H](O)C[C@H](OC)[C@@]34[C@@H]5C[C@@]6(O)[C@H](OC(=O)c7ccccc7)[C@@H]5[C@@](OC(C)=O)([C@@H]([C@H](OC)[C@H]23)[C@@H]14)[C@@H](O)[C@@H]6OC [aconitine] | not detected |  |  |  |  |  |  |  |  |  |  |  |  |  |  | 
